According to patent US12187729B2, “Compounds having PDE9A inhibitory activity, and pharmaceutical uses thereof” (KOREA RESEARCH INSTITUTE OF CHEMICAL TECHNOLOGY, priority 2018, dated 2025):

These molecules were tested against PDE9A (Homo sapiens (Human), UniProt O76083) (assay: PDE9A inhibitory activity, fluorescence polarization assay (IMAP-FP screening express kit)). Conditions: enzyme PDE9A 5 ng/ml, Fl-cGMP substrate 100 nM, room temperature 1 hour.
Format: biochemical
Description: The inhibitory activity of the representative compounds according to the present invention against phosphodiesterase 9A was tested based on the polarization assay (IMAP-FP screening express kit) provided by MDS (MDS Analytical Technologies, Sunyvale, CA, USA). As a buffer solution, a reaction solution (a reaction solution containing 0.01% Tween 20 provided by MDS was diluted 5 times, then 5 mM DTT is added) and a polarization detection solution (binding solution A and B provided by MDS were mixed at a ratio of 3:1 and IMAP binding reagent 1/600 was added) were prepared. 100 μM of the substrate (Fl-cGMP substrate; MDS) and 3.6 μg/ml of the enzyme PDE9A (ab54113; abeam) were prepared. 3.6 μg/ml PDE9A and 100 μM substrate were diluted to 20 ng/ml (final reaction concentration: 5 ng/ml) and 400 nM (final reaction concentration: 100 nM), respectively. The buffer solution used for all dilution and preparation processes was 1× reaction solution with 1 mM DTT added, and the polarization detection solution was used to induce polarization at the end.
The prepared samples were dispensed on black microplates (Multiwell 384 well plates, #3573, Corning Life Sciences, Lowell, MA, USA) using a 16-channel pipette (multi 16-channel, Finnpipette, Thermo Scientific, Essex, UK). The total reaction volume per well is 20 μl. At this time, 10 μl of 2% DMSO, 5 μl of substrate solution, and 5 μl of reaction solution were used as a negative control, and 10 μl of 2% DMSO, 5 μl of substrate solution, and 5 μl of PDE9A solution were used as a positive control. As the experimental group, 10 μl of the compound prepared in Example, 5 μl of the substrate solution, and 5 μl of the PDE9A solution were used. After pretreatment between the compound and the enzyme was performed for about […] before the enzyme-substrate reaction, 5 μl of cGMP was added to induce the enzyme reaction. During the reaction, each compound, enzyme, and substrate occupied 50%, 25%, and 25% of the total volume, respectively, and they were prepared at high concentrations of 2, 4, and 4 times, respectively, immediately before addition. After the enzymatic reaction, it was shaken lightly for 1 minute and the enzyme reaction was induced at room temperature for 1 hour. Then, 60 μl of a polarization detection solution prepared in advance was added to induce polarization.
Nanoparticles composed of trivalent metal ions are mixed in the fluorescence detection solution, which combines with phosphoric acid expose by enzymatic reaction to increase the molecular weight and induce polarization. After leaving for 2 hours at room temperature, the polarization (Fluorescence Polarization, FP) value was measured using a multilabel counter (Envision, PerkinElmer, Turku, Finland) (emission wavelength: P-535 nm, S-535 nm, excitation wavelength: 480 nm), and the result was expressed as an IC50 value, which is the concentration of the compound that inhibited PDE9A by 50% in vitro (Table 2).

Chain of PDE9A (O76083 whole entry): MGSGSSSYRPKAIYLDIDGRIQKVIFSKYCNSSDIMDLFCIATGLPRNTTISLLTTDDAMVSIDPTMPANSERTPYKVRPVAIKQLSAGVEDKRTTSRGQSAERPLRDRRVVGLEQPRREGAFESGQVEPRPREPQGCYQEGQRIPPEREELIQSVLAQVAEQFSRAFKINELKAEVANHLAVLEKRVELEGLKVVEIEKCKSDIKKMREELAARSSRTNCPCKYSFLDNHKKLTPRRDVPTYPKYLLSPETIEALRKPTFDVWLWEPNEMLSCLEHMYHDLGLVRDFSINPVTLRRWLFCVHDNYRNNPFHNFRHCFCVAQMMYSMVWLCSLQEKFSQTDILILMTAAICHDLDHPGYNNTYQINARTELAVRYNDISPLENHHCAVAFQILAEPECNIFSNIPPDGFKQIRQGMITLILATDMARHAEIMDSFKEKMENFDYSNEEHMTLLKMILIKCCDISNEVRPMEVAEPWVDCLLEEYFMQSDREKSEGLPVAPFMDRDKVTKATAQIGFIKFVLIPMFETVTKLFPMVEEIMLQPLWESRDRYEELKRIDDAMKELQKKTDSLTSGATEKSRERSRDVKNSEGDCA

Row | IC50 | Molecule
1 | 27 nM | CCSc1nnc(NC(=O)CSc2nc3c(cnn3-c3ccc(F)cc3)c(=O)[nH]2)s1 [Example 16, N-(5-(ethylthio)-1,3,4-thiadiazol-2-yl)-2-((1-(4-fluorophenyl)-4-oxo-4,5-dihydro-1H-pyrazolo[3,4-d]pyrimidin-6-yl)thio)acetamide]
2 | 12 nM | O=C(CSc1nc2c(cnn2-c2ccccc2)c(=O)[nH]1)Nc1nnc(-c2ccccc2)s1 [Example 25, N-(5-phenyl-1,3,4-thiadiazol-2-yl)-2-((4-oxo-1-phenyl-4,5-dihydro-1H-pyrazolo[3,4-d]pyrimidin-6-yl)thio)acetamide]
3 | 18 nM | O=C(CSc1nc2c(cnn2-c2ccccc2)c(=O)[nH]1)Nc1nnc(Cl)s1 [Example 30, N-(5-chloro-1,3,4-thiadiazol-2-yl)-2-((4-oxo-1-phenyl-4,5-dihydro-1H-pyrazolo[3,4-d]pyrimidin-6-yl)thio)acetamide]
4 | 36 nM | O=C(CSc1nc2c(cnn2C2CC2)c(=O)[nH]1)Nc1nnc(Cl)s1 [Example 44, N-(5-chloro-1,3,4-thiadiazol-2-yl)-2-((1-cyclopropyl-4-oxo-4,5-dihydro-1H-pyrazolo[3,4-d]pyrimidin-6-yl)thio)acetamide]
5 | 3 nM | CC(C)n1ncc2c(=O)[nH]c(SCC(=O)Nc3nnc(Br)s3)nc21 [Example 38, N-(5-bromo-1,3,4-thiadiazol-2-yl)-2-((1-isopropyl-4-oxo-4,5-dihydro-1H-pyrazolo[3,4-d]pyrimidin-6-yl)thio)acetamide]
6 | 0.3 nM | CCSc1nnc(NC(=O)CSc2nc3c(cnn3C3CCSCC3)c(=O)[nH]2)s1 [Example 29, N-(5-(ethylthio)-1,3,4-thiadiazol-2-yl)-2-((4-oxo-1-(tetrahydro-2H-thiopyran-4-yl)-4,5-dihydro-1H-pyrazolo[3,4-d]pyrimidin-6-yl)thio)acetamide]
7 | 0.6 nM | CCSc1nnc(NC(=O)CSc2nc3c(cnn3C3CCC(F)(F)CC3)c(=O)[nH]2)s1 [Example 19, 2-((1-(4,4-difluorocyclohexyl)-4-oxo-4,5-dihydro-1H-pyrazolo[3,4-d]pyrimidine-6-yl)thio)-N-(5-(ethylthio)-1,3,4-thiadiazol-2-yl)acetamide]
8 | 12 nM | O=C(CSc1nc2c(cnn2-c2ccccc2)c(=O)[nH]1)Nc1nnc(Br)s1 [Example 7, N-(5-bromo-1,3,4-thiadiazol-2-yl)-2-((4-oxo-1-phenyl-4,5-dihydro-1H-pyrazolo[3,4-d]pyrimidin-6-yl)thio)acetamide]
9 | 15 nM | Cc1ccc(CSc2nnc(NC(=O)CSc3nc4c(cnn4-c4ccccc4)c(=O)[nH]3)s2)cc1 [Example 9]
10 | 0.2 nM | CC(Sc1nc2c(cnn2C2CCOCC2)c(=O)[nH]1)C(=O)Nc1nnc(Br)s1 (stereo not drawn) [Example 46, N-(5-bromo-1,3,4-thiadiazol-2-yl)-2-((4-oxo-1-(tetrahydro-2H-pyran-4-yl)-4,5-dihydro-1H-pyrazolo[3,4-d]pyrimidin-6-yl)thio)propanamide]
11 | 0.4 nM | O=C(CSc1nc2c(cnn2C2CCOCC2)c(=O)[nH]1)Nc1nnc(Br)s1 [Example 33, N-(5-bromo-1,3,4-thiadiazol-2-yl)-2-((4-oxo-1-(tetrahydro-2H-pyran-4-yl)-4,5-dihydro-1H-pyrazolo[3,4-d]pyrimidin-6-yl)thio)acetamide]
12 | 1 nM | O=C(CSc1nc2c(cnn2C2CCSCC2)c(=O)[nH]1)Nc1nnc(Cl)s1 [Example 39, N-(5-chloro-1,3,4-thiadiazol-2-yl)-2-((4-oxo-1-(tetrahydro-2H-thiopyran-4-yl)-4,5-dihydro-1H-pyrazolo[3,4-d]pyrimidin-6-yl)thio)acetamide]
13 | 1 nM | O=C(CSc1nc2c(cnn2C2CCCCC2)c(=O)[nH]1)Nc1nnc(Cl)s1 [Example 42, N-(5-chloro-1,3,4-thiadiazol-2-yl)-2-((4-oxo-1-cyclohexyl-4,5-dihydro-1H-pyrazolo[3,4-d]pyrimidin-6-yl)thio)acetamide]
14 | 27 nM | O=C(CSc1nc2c(cnn2-c2ccc(F)cc2)c(=O)[nH]1)Nc1nnc(Br)s1 [Example 17, N-(5-bromo-1,3,4-thiadiazol-2-yl)-2-((1-(4-fluorophenyl)-4-oxo-4,5-dihydro-1H-pyrazolo[3,4-d]pyrimidin-6-yl)thio)acetamide]
15 | 150 nM | Cc1nnc(NC(=O)C(C)Sc2nc3c(cnn3-c3ccccc3)c(=O)[nH]2)s1 (stereo not drawn) [Example 10, N-(5-methyl-1,3,4-thiadiazol-2-yl)-2-((4-oxo-1-phenyl-4,5-dihydro-1H-pyrazolo[3,4-d]pyrimidin-6-yl)thio)propanamide]
16 | 0.4 nM | O=C(CSc1nc2c(cnn2C2CCC(F)(F)CC2)c(=O)[nH]1)Nc1nnc(Cl)s1 [Example 1, 2-((1-(4,4-difluorocyclohexyl)-4-oxo-4,5-dihydro-1H-pyrazolo[3,4-d]pyrimidin-6-yl)thio)-N-(5-chloro-1,3,4-thiadiazol-2-yl)acetamide]
17 | 1 nM | CCSc1nnc(NC(=O)CSc2nc3c(cnn3C(C)C)c(=O)[nH]2)s1 [Example 37, N-(5-(ethylthio)-1,3,4-thiadiazol-2-yl)-2-((1-isopropyl-4-oxo-4,5-dihydro-1H-pyrazolo[3,4-d]pyrimidin-6-yl)thio)acetamide]
18 | 10 nM | CCSc1nnc(NC(=O)C(C)Sc2nc3c(cnn3-c3ccccc3)c(=O)[nH]2)s1 (stereo not drawn) [Example 11, N-(5-(ethylthio)-1,3,4-thiadiazol-2-yl)-2-((4-oxo-1-phenyl-4,5-dihydro-1H-pyrazolo[3,4-d]pyrimidin-6-yl)thio)propanamide]
19 | 7 nM | CC(Sc1nc2c(cnn2-c2ccccc2)c(=O)[nH]1)C(=O)Nc1nnc(Br)s1 (stereo not drawn) [Example 12, N-(5-bromo-1,3,4-thiadiazol-2-yl)-2-((4-oxo-1-phenyl-4,5-dihydro-1H-pyrazolo[3,4-d]pyrimidin-6-yl)thio)propanamide]
20 | 1 nM | CCSc1nnc(NC(=O)CSc2nc3c(cnn3C3CCCCC3)c(=O)[nH]2)s1 [Example 34, N-(5-(ethylthio)-1,3,4-thiadiazol-2-yl)-2-((4-oxo-1-cyclohexyl-4,5-dihydro-1H-pyrazolo[3,4-d]pyrimidin-6-yl)thio)acetamide]
21 | 0.1 nM | CC(Sc1nc2c(cnn2C2CCC(F)(F)CC2)c(=O)[nH]1)C(=O)Nc1nnc(Br)s1 (stereo not drawn) [Example 31, 2-((1-(4,4-difluorocyclohexyl)-4-oxo-4,5-dihydro-1H-pyrazolo[3,4-d]pyrimidin-6-yl)thio)-N-(5-bromo-1,3,4-thiadiazol-2-yl)propanamide]
22 | 39 nM | CCSc1nnc(NC(=O)CSc2nc3c(cnn3C3CC3)c(=O)[nH]2)s1 [Example 40, N-(5-(ethylthio)-1,3,4-thiadiazol-2-yl)-2-((1-cyclopropyl-4-oxo-4,5-dihydro-1H-pyrazolo[3,4-d]pyrimidin-6-yl)thio)acetamide]
23 | 0.6 nM | O=C(CSc1nc2c(cnn2C2CCSCC2)c(=O)[nH]1)Nc1nnc(Br)s1 [Example 32, N-(5-bromo-1,3,4-thiadiazol-2-yl)-2-((4-oxo-1-(tetrahydro-2H-thiopyran-4-yl)-4,5-dihydro-1H-pyrazolo[3,4-d]pyrimidin-6-yl)thio)acetamide]
24 | 28 nM | O=C(CSc1nc2c(cnn2C2CC2)c(=O)[nH]1)Nc1nnc(Br)s1 [Example 41, N-(5-bromo-1,3,4-thiadiazol-2-yl)-2-((1-cyclopropyl-4-oxo-4,5-dihydro-1H-pyrazolo[3,4-d]pyrimidin-6-yl)thio)acetamide]
25 | 0.1 nM | CCSc1nnc(NC(=O)C(C)Sc2nc3c(cnn3C3CCOCC3)c(=O)[nH]2)s1 (stereo not drawn) [Example 45, N-(5-(ethylthio)-1,3,4-thiadiazol-2-yl)-2-((4-oxo-1-(tetrahydro-2H-pyran-4-yl)-4,5-dihydro-1H-pyrazolo[3,4-d]pyrimidin-6-yl)thio)propanamide]
26 | 100 nM | CC(C)(C)c1nnc(NC(=O)CSc2nc3c(cnn3-c3ccccc3)c(=O)[nH]2)s1 [Example 22, N-(5-(tertiary-butyl)-1,3,4-thiadiazol-2-yl)-2-((4-oxo-1-phenyl-4,5-dihydro-1H-pyrazolo[3,4-d]pyrimidin-6-yl)thio)acetamide]

Row | Molecule | IC50
27 | N-(5-(isopropylthio)-1,3,4-thiadiazol-2-yl)-2-((4-oxo-1-phenyl-4,5-dihydro-1H-pyrazolo[3,4-d]pyrimidin-6-yl)thio)acetamide [Example 14] | 9 nM
